Experimental findings from paper PMC10584170, “Machine learning-based phenotypic imaging to characterise the targetable biology of Plasmodium falciparum male gametocytes for the development of transmission-blocking antimalarials” (PLOS Pathogens, 2023) are described below.

For assay [1], the system named is P. falciparum female gametocytes. Kind of assay: P. falciparum Dual Gamete Formation Assay (PfDGFA), female readout (Pfs25-positive female gametes). The format is cell-based, Plasmodium falciparum NF54. The note with it: for Average inhibition female (%): average of replicates; for % inhibition female (individual replicates) R1: replicate R1; for % inhibition female (individual replicates) R3: replicate R3; for % inhibition female (individual replicates) R4: replicate R4. The gist of the method: (§1)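 Read-outs are automated image counts of exflagellation centres (brightfield, 10 frames over 1 s) and Pfs25-positive female gametes (Cy3 fluorescence).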

For assay [2], the system named is P. falciparum male gametocytes. Kind of assay: P. falciparum Dual Gamete Formation Assay (PfDGFA), male readout (exflagellation). The format is cell-based, Plasmodium falciparum NF54. The note with it: for Average inhibition male (%): average of replicates; for % inhibition male (individual replicates) R1: replicate R1; for % inhibition male (individual replicates) R3: replicate R3; for % inhibition male (individual replicates) R4: replicate R4; for Activity: hit = >50% inhibition in male or female readout in at least 3 replicates, 0 = no class assigned. An outline of the steps:
as §1

Setting [3] is: 2µM, 24h preincubation with gametocytes prior to induction of gametogenesis.
Setting [4] is: 2µM, 24h preincubation, hits selected on >50% inhibition in the female readout across replicates.
Setting [5] is: 2µM, 24h preincubation, hits selected on >50% inhibition in the male readout across replicates.
[6] abbreviates: PfDGFA at 2µM, 24h preincubation.
Where [7] appears, read: PfDGFA at 2µM, 24h preincubation with gametocytes.
The mark [8] stands for this setting: number of replicates with >50% inhibition in the female readout, 2µM.
[9] abbreviates: number of replicates with >50% inhibition in the male readout, 2µM.
The mark [10] stands for this setting: 2µM, 24h preincubation, number of replicates with >50% inhibition in the female readout.
The mark [11] stands for this setting: 2µM, 24h preincubation, number of replicates with >50% inhibition in the male readout.
[12] abbreviates: PfDGFA at 2µM, 24h preincubation with gametocytes prior to induction of gametogenesis.

For the molecule `NC(CC1CC(=O)N1CC(=O)O)C(=O)O` (centres unmarked) [TCMDC-139050], in assay [1] (setting [3]), the “Average inhibition female (%)” value is on record as 6.8%, the “% inhibition female (individual replicates) R1” value was found to be 12.5%, the “% inhibition female (individual replicates) R3” value is listed as 4.8% and the “% inhibition female (individual replicates) R4” value turned out to be 14.4%. In assay [1] (setting [4]), the HitlevelF was determined as 0. Moreover, in assay [2] (setting [3]), the “Average inhibition male (%)” value is -4.7%, the “% inhibition male (individual replicates) R1” value was 15.3%, the “% inhibition male (individual replicates) R3” value is given as -15.7% and the “% inhibition male (individual replicates) R4” value is -29.8%. Also, the HitlevelM in assay [2] (setting [5]) stood at 0. This molecule showed an Activity in assay [2] (setting [6]) of 0.
For the molecule `COC(=O)c1ccc(-c2ccc(-c3cccnc3)cc2C)cc1` [TCMDC-139074], in assay [1] (setting [3]), the “Average inhibition female (%)” value is given as 13.5%, the “% inhibition female (individual replicates) R1” value is given as 26.9%, the “% inhibition female (individual replicates) R3” value is reported as 10.2% and the “% inhibition female (individual replicates) R4” value is 0.5%. Moreover, the HitlevelF in assay [1] (setting [4]) amounted to 0. Also, in assay [2] (setting [3]), the “Average inhibition male (%)” value stood at 18.8%, the “% inhibition male (individual replicates) R1” value is 21.7%, the “% inhibition male (individual replicates) R3” value amounted to 27.9% and the “% inhibition male (individual replicates) R4” value was 3.9%. In assay [2] (setting [5]), this molecule yielded a HitlevelM of 0. In assay [2] (setting [6]), this molecule registered an Activity of 0.
`CN(C)CCCc1cc2c(cc1Cl)CCN2C(=O)Nc1ccc(-c2ccncc2)c2ccccc12` [TCMDC-139215]: in assay [1] (setting [3]), the “Average inhibition female (%)” value is listed as 5.1%, the “% inhibition female (individual replicates) R1” value came out at 27.9%, the “% inhibition female (individual replicates) R3” value is recorded as -29.4% and the “% inhibition female (individual replicates) R4” value stood at 20.5%. Also, the HitlevelF in assay [1] (setting [4]) was determined as 0. For the same molecule, in assay [2] (setting [3]), the “Average inhibition male (%)” value is given as 2.0%, the “% inhibition male (individual replicates) R1” value is 5.2%, the “% inhibition male (individual replicates) R3” value is 1.0% and the “% inhibition male (individual replicates) R4” value is reported as 8.2%. For the same molecule, in assay [2] (setting [5]), the HitlevelM came to 0. The molecule also returned an Activity in assay [2] (setting [6]) of 0.
As for `CN1CCN(c2cc3c(cc2Cl)CCN3C(=O)Nc2ccc(NC(=O)c3ccc(C(F)(F)F)cc3)cc2)CC1.Cl` [TCMDC-139270], in assay [1] (setting [7]), the “Average inhibition female (%)” value is reported as 59.6%, the “% inhibition female (individual replicates) R1” value is 37.1%, the “% inhibition female (individual replicates) R3” value is 50.9% and the “% inhibition female (individual replicates) R4” value amounted to 69.9%. The HitlevelF in assay [1] (setting [8]) was found to be 3. Moreover, in assay [2] (setting [7]), the “Average inhibition male (%)” value was 84.1%, the “% inhibition male (individual replicates) R1” value is reported as 90.7%, the “% inhibition male (individual replicates) R3” value turned out to be 63.5% and the “% inhibition male (individual replicates) R4” value is listed as 92.9%. The molecule also had a HitlevelM in assay [2] (setting [9]) of 4.
Turning to `CCCCCCCN1CC[C@@H](CCCc2ccnc3ccc(OC)cc23)[C@@H](CCN)C1.O=C(O)C(=O)O` [TCMDC-139278], in assay [1] (setting [3]), the “Average inhibition female (%)” value came to 13.3%, the “% inhibition female (individual replicates) R1” value came out at 23.8%, the “% inhibition female (individual replicates) R3” value is listed as -1.7% and the “% inhibition female (individual replicates) R4” value is 20.4%. Besides, in assay [1] (setting [4]), the HitlevelF is listed as 0. Also, in assay [2] (setting [3]), the “Average inhibition male (%)” value is reported as 60.9%, the “% inhibition male (individual replicates) R1” value was found to be 62.0% and the “% inhibition male (individual replicates) R4” value turned out to be 48.5%. The same molecule had a HitlevelM in assay [2] (setting [5]) of 2. The molecule also came in with an Activity in assay [2] (setting [6]) of 0.
Turning to `COc1ccc(COc2cc(NCCCN)nc3ccccc23)cc1` [TCMDC-139286], in assay [1] (setting [3]), the “Average inhibition female (%)” value is recorded as 19.5%, the “% inhibition female (individual replicates) R1” value was determined as 25.0%, the “% inhibition female (individual replicates) R3” value was 18.0% and the “% inhibition female (individual replicates) R4” value is listed as 26.8%. In assay [1] (setting [10]), this molecule came in with a HitlevelF of 0. Also, in assay [2] (setting [3]), the “Average inhibition male (%)” value came to 30.7%, the “% inhibition male (individual replicates) R1” value stood at 52.7%, the “% inhibition male (individual replicates) R3” value was determined as 36.6% and the “% inhibition male (individual replicates) R4” value is listed as 44.0%. The HitlevelM in assay [2] (setting [11]) worked out at 1.
On to `COc1cc(NCC(O)CNc2cc(OC)c3ccccc3n2)nc2ccccc12` [TCMDC-139360], for which, in assay [1] (setting [3]), the “Average inhibition female (%)” value is listed as 25.6%, the “% inhibition female (individual replicates) R1” value was 27.5%, the “% inhibition female (individual replicates) R3” value came out at 10.8% and the “% inhibition female (individual replicates) R4” value amounted to 36.1%. Further, the HitlevelF in assay [1] (setting [10]) stood at 0. Moreover, in assay [2] (setting [3]), the “Average inhibition male (%)” value amounted to 53.4%, the “% inhibition male (individual replicates) R1” value is reported as 68.1%, the “% inhibition male (individual replicates) R3” value is recorded as 33.7% and the “% inhibition male (individual replicates) R4” value is recorded as 64.9%. Moreover, the HitlevelM in assay [2] (setting [11]) was 2.
For the molecule `COc1ccc(C(=O)Nc2cc(Cl)c3c(c2)C2CCCN2CC3)cc1C(F)(F)F.Cl` (centres unmarked) [TCMDC-139417], in assay [1] (setting [12]), the “% inhibition female (individual replicates) R1” value worked out at 2.5%, the “% inhibition female (individual replicates) R3” value is on record as -4.3% and the “% inhibition female (individual replicates) R4” value is given as 1.3%. The “Average inhibition female (%)” value in assay [1] (setting [6]) was found to be 1.8%. For the same molecule, in assay [2] (setting [12]), the “% inhibition male (individual replicates) R1” value is on record as -1.3% and the “% inhibition male (individual replicates) R4” value came out at 9.8%. In addition, the “Average inhibition male (%)” value in assay [2] (setting [6]) is recorded as 13.2%.
On to `N=C(N)Nc1nc(-c2cccc(NC(=O)NCCc3c[nH]c4ccc(OCc5ccccc5)cc34)c2)cs1` [TCMDC-139557], for which, in assay [1] (setting [3]), the “Average inhibition female (%)” value was 5.9%, the “% inhibition female (individual replicates) R1” value is reported as 1.1%, the “% inhibition female (individual replicates) R3” value is recorded as -17.0% and the “% inhibition female (individual replicates) R4” value stood at 37.8%. In addition, the HitlevelF in assay [1] (setting [4]) is 0. In addition, in assay [2] (setting [3]), the “Average inhibition male (%)” value was 6.6%, the “% inhibition male (individual replicates) R1” value is recorded as 1.3%, the “% inhibition male (individual replicates) R3” value worked out at 4.0% and the “% inhibition male (individual replicates) R4” value came to 10.9%. Also, the HitlevelM in assay [2] (setting [5]) is 0. In assay [2] (setting [6]), this molecule came in with an Activity of 0.
For `CC(Cc1ccc(CNC(=O)c2ccc(CC(C)NCCc3cccc(Cl)c3)cc2)cc1)NCCc1cccc(Cl)c1` (centres unmarked) [TCMDC-139659], in assay [1] (setting [3]), the “Average inhibition female (%)” value worked out at 5.1%, the “% inhibition female (individual replicates) R1” value is on record as 10.4%, the “% inhibition female (individual replicates) R3” value was -19.4% and the “% inhibition female (individual replicates) R4” value was -1.7%. Also, the HitlevelF in assay [1] (setting [4]) is 0. Further, in assay [2] (setting [3]), the “Average inhibition male (%)” value was found to be 33.9%, the “% inhibition male (individual replicates) R1” value was found to be 26.3%, the “% inhibition male (individual replicates) R3” value is 2.8% and the “% inhibition male (individual replicates) R4” value was 42.9%. Moreover, the HitlevelM in assay [2] (setting [5]) stood at 1. In assay [2] (setting [6]), this molecule displayed an Activity of 0.
Take `O=C(/C=C/c1ccc(Cl)c(Cl)c1)N1CCC2CC(N3CCC(c4c[nH]c5ccccc45)CC3)CCC2C1` (centres unmarked) [TCMDC-139677]: in assay [1] (setting [3]), the “Average inhibition female (%)” value is 4.1%, the “% inhibition female (individual replicates) R1” value was 10.8%, the “% inhibition female (individual replicates) R3” value was -1.7% and the “% inhibition female (individual replicates) R4” value worked out at 7.4%. Further, in assay [1] (setting [4]), the HitlevelF is given as 0. In assay [2] (setting [3]), the “Average inhibition male (%)” value is recorded as 6.9%, the “% inhibition male (individual replicates) R1” value is given as -0.85%, the “% inhibition male (individual replicates) R3” value came to 2.4% and the “% inhibition male (individual replicates) R4” value is 12.3%. The molecule also yielded a HitlevelM in assay [2] (setting [5]) of 0. This molecule showed an Activity in assay [2] (setting [6]) of 0.
For the molecule `CC(=O)N(Cc1ccc(CC(C)NCCc2cccc(Cl)c2)cc1)Cc1ccc(CC(C)NCCc2cccc(Cl)c2)cc1` (centres unmarked) [TCMDC-139678], in assay [1] (setting [3]), the “Average inhibition female (%)” value is listed as 14.1%, the “% inhibition female (individual replicates) R1” value turned out to be 15.3%, the “% inhibition female (individual replicates) R3” value came to 11.1% and the “% inhibition female (individual replicates) R4” value is 16.3%. In addition, in assay [1] (setting [4]), the HitlevelF is 0. Moreover, in assay [2] (setting [3]), the “Average inhibition male (%)” value came out at 26.9%, the “% inhibition male (individual replicates) R1” value was found to be 39.1%, the “% inhibition male (individual replicates) R3” value is listed as 19.2% and the “% inhibition male (individual replicates) R4” value stood at 27.9%. For the same molecule, in assay [2] (setting [5]), the HitlevelM is recorded as 0. In assay [2] (setting [6]), this molecule gave an Activity of 0.
On to `COc1ccc(CCNC(C)Cc2ccc(C(=O)Nc3ccc(CC(C)NCCc4cccc(Cl)c4)cc3)cc2)cc1` (centres unmarked) [TCMDC-139750], for which, in assay [1] (setting [7]), the “Average inhibition female (%)” value worked out at 25.6%, the “% inhibition female (individual replicates) R1” value was 25.4%, the “% inhibition female (individual replicates) R3” value is listed as 18.2% and the “% inhibition female (individual replicates) R4” value is reported as 15.5%. In assay [1] (setting [8]), this molecule returned a HitlevelF of 0. Moreover, in assay [2] (setting [7]), the “Average inhibition male (%)” value worked out at 69.1%, the “% inhibition male (individual replicates) R1” value came to 78.2%, the “% inhibition male (individual replicates) R3” value is 37.9% and the “% inhibition male (individual replicates) R4” value is on record as 84.9%. In assay [2] (setting [9]), the HitlevelM turned out to be 3.
